According to ChEMBL document CHEMBL4368919, “Identification of the Metabolic Profile of the α-Tubulin-Binding Natural Product (-)-Pironetin” (J Med Chem, 2019):

Key:
[1] = Stability in rat serum assessed as compound remaining after 24 hrs; format: ADME, cell-free; settings: read-out: Stability
Cytochrome P450 3A4 [2] = target: T1, Cytochrome P450 3A4 (Homo sapiens, UniProt P08684); assay: Inhibition of CYP3A4 (unknown origin) using midazolam as substrate; format: ADME
[3] = Half life in rat liver microsomes in presence of NADPH regeneration system by LC-MS/MS analysis; format: ADME, Microsome
[4] = Half life in human liver microsomes in presence of NADPH regeneration system by LC-MS/MS analysis; format: ADME, Microsome
[5] = target: T2, Tubulin alpha (Homo sapiens) (UniProt P0DPH7+P68366+Q71U36+P68363+Q9BQE3+Q6PEY2+A6NHL2+Q9NY65); assay: Inhibition of tubulin alpha in human A2780CP cells assessed as cell growth inhibition after 48 hrs by MTT assay; format: cell-based
Cytochrome P450 2C9 = Cytochrome P450 2C9 (Homo sapiens, UniProt P11712); assay: Inhibition of CYP2C9 (unknown origin) using tolbutamide as substrate; format: ADME
Chain of Cytochrome P450 2C9 (P11712 whole entry): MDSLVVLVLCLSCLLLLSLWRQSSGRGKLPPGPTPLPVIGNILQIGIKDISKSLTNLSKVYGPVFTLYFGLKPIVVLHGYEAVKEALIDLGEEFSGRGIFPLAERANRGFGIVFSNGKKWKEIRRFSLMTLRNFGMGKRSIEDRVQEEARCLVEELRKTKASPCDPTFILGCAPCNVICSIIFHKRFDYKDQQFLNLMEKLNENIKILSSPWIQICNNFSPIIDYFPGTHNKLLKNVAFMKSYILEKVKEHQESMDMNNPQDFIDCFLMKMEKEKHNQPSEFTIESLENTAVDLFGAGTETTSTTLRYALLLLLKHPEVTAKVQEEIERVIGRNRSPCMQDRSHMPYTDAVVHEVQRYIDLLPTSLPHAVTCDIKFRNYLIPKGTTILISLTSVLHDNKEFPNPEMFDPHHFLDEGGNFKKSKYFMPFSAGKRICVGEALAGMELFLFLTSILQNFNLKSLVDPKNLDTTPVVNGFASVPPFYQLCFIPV

[6] = Stability in human serum assessed as compound remaining at 1.10 mg after 24 hrs by HPLC analysis; format: ADME, cell-free; settings: read-out: Stability
[7] = Inhibition of tubulin alpha in human A2780 cells assessed as reduction in cell growth
Cytochrome P450 3A4 [8] = target: T1, Cytochrome P450 3A4; assay: Inhibition of CYP3A4 (unknown origin) using testosterone as substrate; format: ADME
[9] = Stability in mouse serum assessed as compound remaining at 1.30 ml after 24 hrs by HPLC analysis; format: ADME, cell-free; settings: read-out: Stability
[10] = Protein binding in mouse plasma; format: ADME, cell-free; settings: read-out: PPB (converted)
[11] = Protein binding in human plasma; format: ADME, cell-free; settings: read-out: PPB (converted)
[12] = target: T2, Tubulin alpha (Homo sapiens); assay: Inhibition of tubulin alpha in human A2780 cells assessed as cell growth inhibition after 48 hrs by MTT assay; format: cell-based
[13] = Half life in mouse liver microsomes in presence of NADPH regeneration system by LC-MS/MS analysis; format: ADME, Microsome
[14] = Protein binding in rat plasma; format: ADME, cell-free; settings: read-out: PPB (converted)
Cytochrome P450 2D6 = Cytochrome P450 2D6 (Homo sapiens, UniProt P10635); assay: Inhibition of CYP2D6 (unknown origin) using dextromethorphan as substrate; format: ADME
Chain of Cytochrome P450 2D6 (P10635 whole entry): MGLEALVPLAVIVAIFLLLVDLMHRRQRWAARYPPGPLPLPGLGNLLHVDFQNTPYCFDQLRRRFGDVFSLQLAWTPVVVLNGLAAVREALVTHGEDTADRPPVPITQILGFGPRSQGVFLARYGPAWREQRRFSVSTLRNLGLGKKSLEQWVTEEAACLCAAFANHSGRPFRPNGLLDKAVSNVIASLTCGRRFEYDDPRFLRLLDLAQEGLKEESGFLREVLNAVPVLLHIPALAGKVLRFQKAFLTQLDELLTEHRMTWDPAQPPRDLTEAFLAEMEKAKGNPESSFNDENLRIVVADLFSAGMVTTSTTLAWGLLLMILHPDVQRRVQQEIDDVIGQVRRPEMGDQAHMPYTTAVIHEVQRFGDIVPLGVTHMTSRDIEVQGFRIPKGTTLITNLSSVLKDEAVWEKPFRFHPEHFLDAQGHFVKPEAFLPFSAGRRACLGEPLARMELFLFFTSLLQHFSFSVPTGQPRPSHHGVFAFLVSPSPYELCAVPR

[15] = Drug level in human liver microsomes treated with pironetin assessed as compound formation after 30 mins by LC-MS/MS analysis; format: ADME, Microsome; settings: 0.5 h
3Y1 cell line = assay: Cell cycle arrest in rat 3Y1 cells assessed as accumulation at G2/M phase after 24 hrs by propidium iodide-staining based flow cytometry relative to (-)-Pironetin; format: ADME; settings: 3y1, 24 h

T1 sequence (P08684 whole entry): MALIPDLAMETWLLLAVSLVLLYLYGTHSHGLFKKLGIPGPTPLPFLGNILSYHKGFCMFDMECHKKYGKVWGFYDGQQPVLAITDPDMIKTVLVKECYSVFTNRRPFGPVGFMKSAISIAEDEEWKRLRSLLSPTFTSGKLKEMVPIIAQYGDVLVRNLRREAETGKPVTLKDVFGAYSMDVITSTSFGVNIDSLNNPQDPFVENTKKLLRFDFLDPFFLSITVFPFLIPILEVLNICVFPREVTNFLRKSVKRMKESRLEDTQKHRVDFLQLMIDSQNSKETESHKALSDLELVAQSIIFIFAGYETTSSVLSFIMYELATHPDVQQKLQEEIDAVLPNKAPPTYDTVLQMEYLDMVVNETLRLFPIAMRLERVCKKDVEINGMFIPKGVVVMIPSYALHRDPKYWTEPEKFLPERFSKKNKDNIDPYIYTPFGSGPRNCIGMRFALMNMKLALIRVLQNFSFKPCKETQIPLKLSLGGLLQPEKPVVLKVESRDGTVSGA

## C/C=C/C[C@H](C)[C@@H](OC)[C@@H](C)[C@H](O)C[C@H]1OC(=O)C=C[C@H]1CC [PIRONETIN]
[1]
  remaining at 24 h: 56%
Cytochrome P450 3A4 [2]
  inhibition (INH): Active
[3]
  t1/2: < 15 min
[4]
  t1/2: 7 min
[5]
  GI50: 22.3 nM
Cytochrome P450 2C9
  inhibition (INH): Active
[6]
  remaining at 24 h: 50%
[7]
  IC50: 26 nM
Cytochrome P450 3A4 [8]
  inhibition (INH): Active
[9]
  remaining at 24 h: 35%
[10]
  fraction unbound: 0.02
[11]
  fraction unbound: 0.13
[12]
  GI50: 22.2 nM
[13]
  t1/2: < 15 min
[14]
  fraction unbound: 0.07
Cytochrome P450 2D6
  inhibition (INH): Active

## C/C=C/C[C@H](C)[C@@H](O)[C@@H](C)[C@H](O)C[C@H]1OC(=O)C=C[C@H]1CC
[5]
  GI50: 82.3 nM
[15]
  Drug uptake: Active
[12]
  GI50: 29.6 nM
3Y1 cell line
  Activity: Toxic

## CC[C@@H]1C=CC(=O)O[C@@H]1C[C@@H](O)[C@H](C)[C@H](OC)[C@@H](C)C[C@@H]1O[C@H]1C (relative stereo)
[5]
  GI50: 1010 nM
[15]
  Drug uptake: Active
[7]
  IC50: 540 nM
[12]
  GI50: 218 nM
3Y1 cell line
  fold change (FC): 25
